# Test results from patent US20170355708A1, “POTASSIUM CHANNEL MODULATORS” (Cadent Therapeutics, Inc., priority 2016, published 2017).
# Biological target: T1, hSK2 channels (Homo sapiens, UniProt P0DP23+Q9H2S1)
# T1 construct: expressed in transfected cells; host or cells: HEK293
# Experiment: Whole-cell patch-clamp recording of SK2 channel current (SC100)
# Type: cell-based
# Details: Stimulating Concentration required for increasing the baseline current by 100%; HEK293 cells expressing hSK2; Table 3
# Experimental: The biological activity of certain compounds were determined as follows. The ionic current through small-conductance Ca^2+-activated K^+ channels (SK channels, subtype 2) is recorded using the whole-cell configuration of the patch-clamp technique in a classic patch-clamp set-up using HEK293 tissue culture cells expressing hSK2 channels as described in Kasumu et. al., Chemistry & Biology 19, 1340-1353, Oct. 26, 2012.
# The SC100 value determined is defined as the Stimulating Concentration required for increasing the baseline current by 100%.
row,SMILES,SC100 uM
1,"Cc1cc(C)n(-c2cc(N3C[C@@H]4C[C@H]3CN4)nc(Nc3ccc(F)cc3F)n2)n1 (stereo in doubt) [Compound 106, 4-((1S,4S)-2,5-diazabicyclo[2.2.1]heptan-2-yl)-N-(2,4-difluorophenyl)-6-(3,5-dimethyl-1H-pyrazol-1-yl)pyrimidin-2-amine]",++ (++ means 200 nM-1000 nM)
2,"Cc1cc(Nc2ccc(Cl)cc2)nc(-n2ccc(C(C)(C)O)n2)n1 [Compound 142, 2-(1-(4-((4-chlorophenyl)amino)-6-methylpyrimidin-2-yl)-1H-pyrazol-3-yl)propan-2-ol]",++ (++ means 200 nM-1000 nM)
3,"Cc1cc(C)n(-c2nc(Nc3ccc(F)c(F)c3)cc(N3CCO[C@@H](CO)C3)n2)n1 (single isomer, unassigned) [Compound 121, (+)-(4-(6-((3,4-difluorophenyl)amino)-2-(3,5-dimethyl-1H-pyrazol-1-yl)pyrimidin-4-yl)morpholin-2-yl) methanol]",+++ (+++ means <200 nM)
4,"CC(=O)NCc1cc(Nc2ccc(Cl)cc2)nc(-n2ccc(C(F)F)n2)c1 [Compound 165, N-((2-((4-chlorophenyl)amino)-6-(3-(difluoromethyl)-1H-pyrazol-1-yl)pyridin-4-yl)methyl)acetamide]",++ (++ means 200 nM-1000 nM)
5,"OCc1ccn(-c2nc(Nc3ccc(Cl)cc3)cc(N3CCOCC3)n2)n1 [Compound 149, (1-(4-((4-chlorophenyl)amino)-6-morpholinopyrimidin-2-yl)-1H-pyrazol-3-yl)methanol]",++ (++ means 200 nM-1000 nM)
6,"Cc1cc(C)n(-c2nc(Nc3ccc(Cl)cc3)nc3c2ncn3C(C)C)n1 [Compound 118, N-(4-chlorophenyl)-6-(3,5-dimethyl-1H-pyrazol-1-yl)-9-isopropyl-9H-purin-2-amine]",+++ (+++ means <200 nM)
7,"Cc1cc(C)n(-c2cc(N3CC4(COC4)C3)nc(Nc3ccc(F)c(F)c3)n2)n1 [Compound 108, N-(3,4-difluorophenyl)-4-(3,5-dimethyl-1H-pyrazol-1-yl)-6-(2-oxa-6-azaspiro[3.3]heptan-6-yl)pyrimidin-2-amine]",++ (++ means 200 nM-1000 nM)
8,"Cc1cc(C)n(-c2nc(Nc3ccc(F)c(F)c3)cc(N3CCOC(C(N)=O)C3)n2)n1 (centres unmarked) [Compound 127, 4-(6-((3,4-difluorophenyl)amino)-2-(3,5-dimethyl-1H-pyrazol-1-yl)pyrimidin-4-yl)morpholine-2-carboxamide]",+ (+ means >1 uM)
9,"Cc1cc(Nc2ccc(Cl)cc2)nc(-n2ccc(C(C)(C)O)n2)c1 [Compound 145, 2-(1-(6-((4-chlorophenyl)amino)-4-methylpyridin-2-yl)-1H-pyrazol-3-yl)propan-2-ol]",++ (++ means 200 nM-1000 nM)
10,"Cc1cc(C)n(-c2nc(Nc3ccc(F)c(F)c3)cc(N3CCOC(CO)C3)n2)n1 (centres unmarked) [Compound 117, (4-(6-((3,4-difluorophenyl)amino)-2-(3,5-dimethyl-1H-pyrazol-1-yl)pyrimidin-4-yl)morpholin-2-yl)methanol]",+++ (+++ means <200 nM)
11,"CC(=O)N1CCN(c2cc(-n3nc(C)cc3C)nc(Nc3ccc(F)cc3)n2)CC1 [Compound 103, 1-(4-(6-(3,5-dimethyl-1H-pyrazol-1-yl)-2-((4-fluorophenyl)amino)pyrimidin-4-yl)piperazin-1-yl)ethan-1-one]",+++ (+++ means <200 nM)
12,"CC(=O)NCc1cc(Nc2ccc(F)cc2)nc(-n2cc(C)c(CO)n2)c1 [Compound 166, N-((2-((4-fluorophenyl)amino)-6-(3-(hydroxymethyl)-4-methyl-1H-pyrazol-1-yl)pyridin-4-yl)methyl)acetamide]",+ (+ means >1 uM)
13,"Cc1cc(C)n(-c2cc(N3CCO[C@H](C(N)=O)C3)nc(Nc3ccc(F)c(F)c3)n2)n1 (single isomer, unassigned) [Compound 131, (+)-4-(2-((3,4-difluorophenyl)amino)-6-(3,5-dimethyl-1H-pyrazol-1-yl)pyrimidin-4-yl)morpholine-2-carboxamide]",+++ (+++ means <200 nM)
14,"FC(F)c1ccn(-c2nc(Nc3ccc(Cl)cc3)cc(N3CCOCC3)n2)n1 [Compound 154, N-(4-chlorophenyl)-2-(3-(difluoromethyl)-1H-pyrazol-1-yl)-6-morpholinopyrimidin-4-amine]",++ (++ means 200 nM-1000 nM)
15,"CC(=O)NCc1cc(Nc2ccc(F)cc2)nc(-n2cc(C)c(CF)n2)c1 [Compound 161, N-((2-(3-(fluoromethyl)-4-methyl-1H-pyrazol-1-yl)-6-((4-fluorophenyl)amino)pyridin-4-yl)methyl)acetamide]",+++ (+++ means <200 nM)
16,"Cc1cc(C)n(-c2nc(Nc3ccc(Cl)cc3)cc(NC(C)C(N)=O)n2)n1 (centres unmarked) [Compound 114, 2-((6-((4-chlorophenyl)amino)-2-(3,5-dimethyl-1H-pyrazol-1-yl)pyrimidin-4-yl)amino)propanamide]",++ (++ means 200 nM-1000 nM)
17,"CC(=O)N1CCN(c2cc(Nc3ccc(F)cc3F)nc(-n3nc(C)cc3C)n2)CC1 [Compound 105, 1-(4-(6-((2,4-difluorophenyl)amino)-2-(3,5-dimethyl-1H-pyrazol-1-yl)pyrimidin-4-yl)piperazin-1-yl)ethan-1-one]",++ (++ means 200 nM-1000 nM)
18,"Cc1cc(Nc2ccc(F)cc2)nc(-n2ccc(C(C)O)n2)n1 (centres unmarked) [Compound 140, 1-(1-(4-((4-fluorophenyl)amino)-6-methylpyrimidin-2-yl)-1H-pyrazol-3-yl)ethan-1-ol]",+ (+ means >1 uM)
19,"Cc1cc(C)n(-c2cc(NC(C)C(N)=O)nc(Nc3ccc(F)c(F)c3)n2)n1 (centres unmarked) [Compound 113, 2-((2-((3,4-difluorophenyl)amino)-6-(3,5-dimethyl-1H-pyrazol-1-yl)pyrimidin-4-yl)amino)propanamide]",++ (++ means 200 nM-1000 nM)
20,"Cc1cc(C)n(-c2nc(Nc3ccc(F)c(F)c3)cc(N3CCO[C@H](CO)C3)n2)n1 (single isomer, unassigned) [Compound 122, (−)-(4-(6-((3,4-difluorophenyl)amino)-2-(3,5-dimethyl-1H-pyrazol-1-yl)pyrimidin-4-yl)morpholin-2-yl)methanol]",++ (++ means 200 nM-1000 nM)
21,"CC(=O)N1CCN(c2cc(Nc3ccc(F)cc3)nc(-n3nc(C)cc3C)n2)CC1 [Compound 102, 1-(4-(2-(3,5-dimethyl-1H-pyrazol-1-yl)-6-((4-fluorophenyl)amino)pyrimidin-4-yl)piperazin-1-yl)ethan-1-one]",++ (++ means 200 nM-1000 nM)
22,"Cc1cc(C)n(Cc2cc(Nc3ccc(F)cc3)nc(-n3ccc(CF)n3)c2)n1 [Compound 170, 4-((3,5-dimethyl-1H-pyrazol-1-yl)methyl)-6-(3-(fluoromethyl)-1H-pyrazol-1-yl)-N-(4-fluorophenyl)pyridin-2-amine]",++ (++ means 200 nM-1000 nM)
23,"Cc1cc(C)n(-c2cc(N3CCOC(C(N)=O)C3)nc(Nc3ccc(F)c(F)c3)n2)n1 (racemic) [Compound 129, 4-(2-((3,4-difluorophenyl)amino)-6-(3,5-dimethyl-1H-pyrazol-1-yl)pyrimidin-4-yl)morpholine-2-carboxamide]",+++ (+++ means <200 nM)
24,"Cc1cc(C)n(-c2nc(Nc3ccc(Cl)cc3)cc(N[C@H](C)C(N)=O)n2)n1 (single isomer, unassigned) [Compound 123, (+)-2-((6-((4-chlorophenyl)amino)-2-(3,5-dimethyl-1H-pyrazol-1-yl)pyrimidin-4-yl)amino)propanamide]",++ (++ means 200 nM-1000 nM)
25,"CC(=O)N1CCN(c2cc(-n3nc(C)cc3C)nc(Nc3ccc(F)c(F)c3)n2)CC1 [Compound 101, 1-(4-(2-((3,4-difluorophenyl)amino)-6-(3,5-dimethyl-1H-pyrazol-1-yl)pyrimidin-4-yl)piperazin-1-yl)ethan-1-one]",+++ (+++ means <200 nM)
26,"CC(C)(O)c1ccn(-c2nc(Nc3ccc(F)cc3)cc(N3CC4(COC4)C3)n2)n1 [Compound 155, 2-(1-(4-((4-fluorophenyl)amino)-6-(2-oxa-6-azaspiro[3.3]heptan-6-yl)pyrimidin-2-yl)-1H-pyrazol-3-yl)propan-2-ol]",+ (+ means >1 uM)

# Same assay, conditions: Stimulating Concentration required for increasing the baseline current by 100%; HEK293 cells expressing hSK2; Table 4
row,SMILES,SC100 (μM)
1,COc1cc(Nc2ccc(F)cc2)nc(-c2cccc(C)n2)n1 [NSSy6908],+ (+ means >1 uM)
2,"Fc1ccc(Nc2ccnc(-n3ccc(C4CC4)n3)n2)cc1 [IN11166-018-P1, 2-(3-cyclopropyl-1H-pyrazol-1-yl)-N-(4-fluorophenyl) pyrimidin-4-amine]",+ (+ means >1 uM)
3,CC1(O)CN(c2cc(Nc3ccc(F)cc3)nc(-n3ccc(CF)n3)c2)C1 [NSSy5632],+++ (+++ means <200 nM)
4,Cc1ccn(-c2nc(Nc3cccc(C(F)(F)F)c3)cc(C(C)O)n2)n1 (centres unmarked) [IN10876-033-P1],++ (++ means 200 nM-1000 nM)
5,COc1cc(Nc2ccc(F)cc2)nc(-c2nc(C)cs2)n1 [IN11059-059-P1],++ (++ means 200 nM-1000 nM)
6,"COC(C)c1cc(Nc2ccc(F)cc2F)nc(-c2nc(C)cs2)n1 (centres unmarked) [IN11059-067-P1, N-(2,4-difluorophenyl)-6-(1-methoxyethyl)-2-(4-methylthiazol-2-yl) pyrimidin-4-amine]",+ (+ means >1 uM)
7,"Cc1cc(Nc2ccc(F)cc2)nc(-n2ccc(C3CC3)n2)n1 [NSSy6921, 2-(3-cyclopropyl-1H-pyrazol-1-yl)-N-(4-fluorophenyl)-6-methylpyrimidin-4-amine]",+ (+ means >1 uM)
8,Cc1ccn(-c2nc(Nc3c(C)cccc3Cl)cc(C(C)O)n2)n1 (centres unmarked) [IN10864-081-P1],+ (+ means >1 uM)
9,Cc1ccn(-c2nc(Nc3ccccc3Cl)cc(C(C)O)n2)n1 (centres unmarked) [IN10881-055-P1],++ (++ means 200 nM-1000 nM)
